Counter-ions that a name gives are not always drawn.
molecular target: TDP-43 (Homo sapiens, UniProt Q13148); test: TDP-43-DNA alpha-screen assay (bt-TAR-32 displacement); type: binding; conditions: bt-TAR-32 0.125 nM, 15 ng/ml TDP-43
Description: Alpha-screen assay: Displacement of bt-TG6 binding was measured using AlphaScreen technology as previously described (Cassel, J. A. et al., Journal of Biomolecular Screening, 2010, 15, 1099-1106; Cassel, J. A.; Reitz, A. B. et al. The effects of small molecule inhibitors of nucleic acid binding to TDP-43 on TDP-43 metabolism and function. Biochimie, 2012, 94, 1974-1981).
Test compounds were diluted in assay buffer (25 mM Tris [pH 7.4], 0.1% bovine serum albumin [BSA], 0.1% Triton X-100) at 4× the desired final concentration. Dilutions of test compound (50 to 0.02 μM in half-log dilutions with a no compound control well) were pre-incubated with TDP-43 (5 μl of 60 ng/mL) pre-bound to AlphaScreen® anti-GST acceptor beads (5 μl of 40 μg/mL) in 15 μl volume for 30 minutes at 23° C. with shaking. Assays were initiated by the addition of 5 μl bt-TAR-32 (5′-CTGCTTTTTGCCTGTACTGGGTCTCTGTGGTT-3′) 0.5 nM pre-bound to AlphaScreen® strepavidin donor beads (40 μg/mL). After incubation in the dark at 23° C. for 90 minutes with shaking, the AlphaScreen® signal was measured on a Synergy 2 plate reader (BioTek, Winooski, Vt.). IC50 values were determined from nonlinear regression fits of the data to a Sigmoidal dose response variable slope model in GraphPad Prism. Final assay conditions are 25 mM Tris [pH 7.4], 0.1% bovine serum albumin [BSA], 0.100 Triton X-100, 15 ng/ml TDP-43, 0.125 nM bTAR32, 10 ug/ml […].

TDP-43, sequence (Q13148 whole entry): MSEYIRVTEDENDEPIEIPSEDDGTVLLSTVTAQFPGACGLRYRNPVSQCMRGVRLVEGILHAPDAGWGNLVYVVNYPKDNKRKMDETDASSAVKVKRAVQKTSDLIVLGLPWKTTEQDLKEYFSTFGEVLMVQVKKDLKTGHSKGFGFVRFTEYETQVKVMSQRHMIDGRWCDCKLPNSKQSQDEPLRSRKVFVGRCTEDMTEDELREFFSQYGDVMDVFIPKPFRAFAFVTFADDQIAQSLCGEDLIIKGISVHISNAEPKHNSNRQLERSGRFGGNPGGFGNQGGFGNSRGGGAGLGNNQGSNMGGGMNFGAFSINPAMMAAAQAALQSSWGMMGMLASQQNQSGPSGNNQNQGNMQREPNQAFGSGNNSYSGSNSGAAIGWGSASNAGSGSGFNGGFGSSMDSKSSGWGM

SMILES | IC50 [µM]
COc1ccc(-c2cc(NCCCN(C)CCCN(C)C)c3ccccc3n2)cc1 [Example 1, N^1-(3-((2-(4-Methoxyphenyl)quinolin-4-yl)amino)propyl)-N^1,N^3,N^3-trimethyl propane-1,3-diamine] | 0.28
CNCCCN(C)CCCNc1cc(-c2ccc(OC)cc2)nc2ccccc12 [Example 2, 2-(4-Methoxyphenyl)-N-(3-{methyl[3-(methylamino)propyl]-amino}propyl) quinolin-4-amine] | 0.11
COc1ccc(-c2cc(NCCCN(C)CCCN)c3ccccc3n2)cc1 [Example 3, N^1-(3-Aminopropyl)-N^3-(2-(4-methoxyphenyl)quinolin-4-yl)-N^1-methylpropane-1,3-diamine] | 0.08
COc1ccc(-c2cc(NCCCNCCCN3CCCCC3)c3ccccc3n2)cc1 [Example 4, N^1-(2-(4-Methoxyphenyl)quinolin-4-yl)-N^3-(3-(piperidin-1-yl)propyl) propane-1,3-diamine trihydrochloride] | 0.22
COc1ccc(-c2cc(NCCCN(C)CCCN3CCCCC3)c3ccccc3n2)cc1 [Example 5, N^1-(2-(4-methoxyphenyl)quinolin-4-yl)-N^3-methyl-N^3-(3-(piperidin-1-yl)propyl)propane-1,3-diamine trihydrochloride] | 0.24
COc1ccc(-c2cc(NCCCNCCCNC(=O)OC(C)(C)C)c3ccccc3n2)cc1 [Example 6, tert-Butyl N-{3-[(3-{[2-(4-methoxyphenyl)quinolin-4yl]amino}propyl)amino]propyl}carbamate] | 0.76
COc1ccc(-c2cc(NCCCN(C)CCCN)c3c(F)cccc3n2)cc1 [Example 7, N^1-(3-aminopropyl)-N^3-(5-fluoro-2-(4-methoxyphenyl)quinolin-4-yl)-N^1-methyl propane-1,3-diamine] | 0.22
COc1ccc(-c2cc(NCCCNCCCN)c3ccccc3n2)cc1 [Example 8, N-{3-[(3-Aminopropyl)amino]propyl}-2-(4-methoxyphenyl)quinolin-4-amine trihydrochloride] | 0.08
COc1ccc(-c2cc(NCCCN(C)CCCN)c3cc(OC)ccc3n2)cc1 [Example 9, N^1-(3-Aminopropyl)-N^3-(6-methoxy-2-(4-methoxyphenyl)quinolin-4-yl)-N^1-methylpropane-1,3-diamine] | 0.05
COc1ccc(-c2cc(NCCCN(C)CCCN)c3ccccc3n2)c(C)c1 [Example 10, N^1-(3-Aminopropyl)-N^3-(2-(2-methyl-4-methoxyphenyl)quinolin-4-yl)-N^1-methylpropane-1,3-diamine] | 0.65
CNCCCCN(C)CCCNc1cc(-c2ccc(OC)cc2)nc2ccccc12 [Example 12, N^1-(3-((2-(4-Methoxyphenyl)quinolin-4-yl)amino)propyl)-N^1,N^4-dimethyl butane-1,4-diamine trihydrochloride] | 0.08
COc1ccc(-c2cc(NCCCN(C)CCCN(C)CCF)c3ccccc3n2)cc1 [Example 13, N^1-(2-fluoroethyl)-N^3-(3-((2-(4-methoxyphenyl)quinolin-4-yl)amino)propyl)-N^1,N^3-dimethylpropane-1,3-diamine] | 0.33
COc1ccc(-c2cc(NCCCNCCCO)c3ccccc3n2)cc1 [Example 14, 3-((3-((2-(4-Methoxyphenyl)quinolin-4-yl)amino)propyl)amino)-propan-1-ol] | 0.9
COCCCNCCCNc1cc(-c2ccc(OC)cc2)nc2ccccc12 [Example 15, N-(3-(3-methoxypropylamino)propyl)-2-(4-methoxyphenyl)quinolin-4-amine] | 0.8
COc1ccc(-c2cc(NCCCN(CCCN)C(C)=O)c3ccccc3n2)cc1 [Example 16, N-(3-(2-(4-Methoxyphenyl)quinolin-4-ylamino)propyl)-N-(3-aminopropyl) acetamide] | 1.42
COc1ccc(-c2cc(NCCCN(CCCN(C)C)CC3CC3)c3ccccc3n2)cc1 [Example 17, N^1-(Cyclopropylmethyl)-N^1-(3-((2-(4-methoxyphenyl)quinolin-4-yl)amino)propyl)-N^3,N^3-dimethylpropane-1,3-diamine] | 0.18
COc1ccc(-c2cc(NCCCN(CCCN(C)C)CC3CN(C(=O)OC(C)(C)C)C3)c3ccccc3n2)cc1 [Example 18, tert-Butyl 3-(((3-(dimethylamino)propyl)(3-((2-(4-methoxyphenyl)quinolin-4-yl)amino)propyl)amino)methyl)azetidine-1-carboxylate] | 1.41
COc1ccc(-c2cc(NCCCN(CCCN(C)C)CC3CCN(C(=O)OC(C)(C)C)CC3)c3ccccc3n2)cc1 [Example 19, tert-Butyl 4-(((3-(dimethylamino)propyl)(3-((2-(4-methoxyphenyl)quinolin-4-yl)amino)propyl)amino)methyl)piperidine-1-carboxylate] | 0.95
COc1ccc(-c2cc(NCCCN(CCCN(C)C)CC3CNC3)c3ccccc3n2)cc1 [Example 20, N^1-(Azetidin-3-ylmethyl)-N^1-(3-((2-(4-methoxyphenyl)quinolin-4-yl)amino)propyl)-N^3,N^3-dimethylpropane-1,3-diamine] | 0.13
COc1ccc(-c2cc(NCCCN(CCCN(C)C)CC3CCNCC3)c3ccccc3n2)cc1 [Example 21, N^1-(3-((2-(4-Methoxyphenyl)quinolin-4-yl)amino)propyl)-N^3,N^3-dimethyl-N^1-(piperidin-4-ylmethyl)propane-1,3-diamine] | 0.12
COc1ccc(-c2cc(NCCCNCc3cncn3C)c3ccccc3n2)cc1 [Example 22, N^1-(2-(4-Methoxyphenyl)quinolin-4-yl)-N^3-((1-methyl-1H-imidazol-5-yl)methyl)propane-1,3-diamine] | 0.68
COc1ccc(-c2cc(NCCCN3CC4CNCC4C3)c3ccccc3n2)cc1 (centres unmarked) [Example 23, N-(3-(Hexahydropyrrolo[3,4-c]pyrrol-2(1H)-yl)propyl)-2-(4-methoxyphenyl) quinolin-4-amine] | 0.24
COc1ccc(-c2cc(NCCCN(C)Cc3ccc(N)nc3)c3ccccc3n2)cc1 [Example 24, N^1-((6-Aminopyridin-3-yl)methyl)-N^3-(2-(4-methoxyphenyl)-quinolin-4-yl)-N^1-methylpropane-1,3-diamine] | 1.11
COc1ccc(-c2cc(NCCCN(C)CC(O)CN(C)C)c3ccccc3n2)cc1 (centres unmarked) [Example 25, 1-(Dimethylamino)-3-((3-((2-(4-methoxyphenyl)quinolin-4-yl)-amino)propyl)(methyl)amino)propan-2-ol] | 0.22
COc1ccc(-c2cc(NCCCN(C)CCCN3CCC(O)CC3)c3ccccc3n2)cc1 [Example 26, 1-(3-((3-((2-(4-Methoxyphenyl)quinolin-4-yl)amino)propyl)-methylamino)propyl) piperidin-4-ol] | 0.15
COc1ccc(-c2cc(NCCCN3CC4CN(C(=O)OC(C)(C)C)CC4C3)c3ccccc3n2)cc1 (centres unmarked) [Example 27, tert-butyl 5-(3-((2-(4-methoxyphenyl)quinolin-4-yl)amino)propyl)hexahydro-pyrrolo[3,4-c]pyrrole-2(1H)-carboxylate] | 2.08
COc1ccc(-c2cc(NCCCN(C)Cc3ccc(N(C)C)nc3)c3ccccc3n2)cc1 [Example 28, N^1-((6-(dimethylamino)pyridin-3-yl)methyl)-N^3-(2-(4-methoxyphenyl)quinolin-4-yl)-N^1-methylpropane-1,3-diamine] | 1.21

same assay, conditions: side-by-side, three independent assays, bt-TAR32; average

SMILES | increase in potency versus (XXVIII), average [×]
COc1ccc(-c2cc(NCCCN(C)CCCN)c3ccccc3n2)cc1 [Example 3, N^1-(3-Aminopropyl)-N^3-(2-(4-methoxyphenyl)quinolin-4-yl)-N^1-methylpropane-1,3-diamine] | 14

same assay, conditions: side-by-side, three independent assays, bt-TAR32; range

SMILES | increase in potency versus (XXVIII)
COc1ccc(-c2cc(NCCCN(C)CCCN)c3ccccc3n2)cc1 [Example 3, N^1-(3-Aminopropyl)-N^3-(2-(4-methoxyphenyl)quinolin-4-yl)-N^1-methylpropane-1,3-diamine] | 11-18 ×
